Results taken from patent publication US12383548B2, “Antibacterial quinolines” (priority 2019, dated 2025).
≈ marks a conversion by molar mass, not a printed value. Read-outs that look alike come from different tables or passages of the source.

Tests used:
[1] = tested on: susceptible H37Rv M. tuberculosis, strain ATCC 25618; test: Mycobacterium tuberculosis susceptibility assay REMA (resazurin microtiter assay); type: cell-based; details: Mycobacterium tuberculosis, 144 h, MTB growth, H37Rv, 6 days at 37° C., Middlebrook 7H9, read-out: REMA MIC
[2] = tested on: HepG2 cell line; test: in vitro cytotoxicity assay (MTS tetrazolium reduction, cell viability); type: cell-based; details: Homo sapiens, HepG2, 48 h, MTS, read-out: IC50
Description: In an embodiment, the in vitro cytotoxicity assay was carried out as follows. […] The assay was performed in 96 well plates for 48 h at 37° C. and 5% CO2 in incubation medium (low glucose DMEM with Glutamax, 10% FBS, 1% Pen/Strep and DMSO). Cells were exposed to 8 different compound concentrations in successive dilutions (usually, base 2), plus a positive control (a compound in a concentration known to decrease cell viability above 50%) and a negative control (incubation medium). Six replicate wells were assayed for each condition. Compound stock solutions were prepared in DMSO at 20 mM, whenever possible, filter sterilized, aliquoted and stored at −20° C. The maximum compound concentrations tested depend on its solubility in incubation medium, and on the maximum DMSO percentage allowable without loss of cell viability. At the end of the incubation period, tetrazolium reagent was added (CellTiter 96® AQueous Solution from Promega); cells were incubated for another 3 hours in order to promote tetrazolium reduction to formazan by viable cells. The amount of soluble formazan produced was evaluated by 490 nm absorbance reading in a spectrophotometer plate reader.

[3] = physchem; type: physicochemical; details: pH 7.4
Description: The solution was allowed to mix in a rotator for 1 hour at 30 rpm.

[4] = in vitro; type: in vitro ADME; details: human, plasma
Description: The percentage of the test compounds remaining after incubation in plasma and their half-lives (T1/2) were calculated.

[5] = in vitro; type: in vitro ADME; details: human, plasma, pH 7.4
Description: The assay was performed in a multiple-use 96-well dialysis unit (HTD96b dialyzer). […] 120 μl of non-diluted plasma spiked with the compound (1 μM, 1% final DMSO concentration) was added to one chamber and the same volume of phosphate buffer saline pH 7.4 to the other chamber. HTD96b dialyzer was covered with adhesive sealing film and incubated at 37° C. and 100 rpm orbital shaking for 5 hours. […] For sample preparation, an aliquot of the content of each chamber was mixed with the same volume of the blank opposite matrix. In order to define non-specific loss of the compound during this assay, standard solution was created by mixing an aliquot of spiked plasma with blank buffer without dialysis. Samples were diluted 10-fold with 100% acetonitrile with subsequent plasma proteins sedimentation by centrifugation. Supernatants were analysed using a Shimadzu VP HPLC system with a reverse phase column, coupled with a tandem mass spectrometer API 3000 (PE Sciex). The both positive and negative ion modes of the TurbolonSpray ion source were used. […]
The percentage of plasma protein bounded compound and its recovery were calculated using the equations below:
The percentage of plasma protein bounded compound and its recovery were calculated using the values obtained for each compound in the quantification of the 3 samples (in buffer, plasma and standard solution).

Row | Structure (SMILES) | MIC ([1]; Table 1) [µM] | MIC ([1]; Table 2) [µM] | IC50 ([2]; Table 1, cytotoxicity) [µM] | IC50 ([2]; Table 2, cytotoxicity) [µM] | logD [3] | half-life at 1 μM [4] [h] | fraction unbound at 5 h, 1 μM [5]
1 | CCOC(=O)C1CCN(c2ccc3cc(-c4cccc(O)c4)ccc3n2)CC1 [Compound 26, ethyl 1-(6-(3-hydroxyphenyl)quinolin-2-yl)piperidine-4-carboxylate] | < 7.8 | < 7.8 | > 100 | > 100 | > 4.5 | > 2 | ≤ 0.01
2 | CCOC(=O)C1CCN(c2ccc3cc(-c4ccc5[nH]ccc5c4)ccc3n2)CC1 [Compound 42, ethyl 1-(6-(1H-indol-5-yl)quinolin-2-yl)piperidine-4-carboxylate] | 7.8 to 15.6 (≈ 3.12 to 6.23 µg/mL) |  | 20 to 50 |  |  |  | 
3 | CCOC(=O)C1CCCN(c2ccc3cc(-c4ccncc4)ccc3n2)C1 (centres unmarked) [Compound 54, ethyl 1-(6-(pyridin-4-yl)quinolin-2-yl)piperidine-3-carboxylate] | 7.8 to 15.6 (≈ 2.82 to 5.64 µg/mL) |  | > 100 |  |  |  | 
